The target of experiment [1] is T1, HMalT (His-tagged MalT) (Escherichia coli, UniProt P06993).
T1 construct: full-length, His-tagged; purified on Ni2+ resin then Superdex 200; monomeric in resting form, multimerizes with maltotriose and ATP
T1 sequence (P06993 1-901): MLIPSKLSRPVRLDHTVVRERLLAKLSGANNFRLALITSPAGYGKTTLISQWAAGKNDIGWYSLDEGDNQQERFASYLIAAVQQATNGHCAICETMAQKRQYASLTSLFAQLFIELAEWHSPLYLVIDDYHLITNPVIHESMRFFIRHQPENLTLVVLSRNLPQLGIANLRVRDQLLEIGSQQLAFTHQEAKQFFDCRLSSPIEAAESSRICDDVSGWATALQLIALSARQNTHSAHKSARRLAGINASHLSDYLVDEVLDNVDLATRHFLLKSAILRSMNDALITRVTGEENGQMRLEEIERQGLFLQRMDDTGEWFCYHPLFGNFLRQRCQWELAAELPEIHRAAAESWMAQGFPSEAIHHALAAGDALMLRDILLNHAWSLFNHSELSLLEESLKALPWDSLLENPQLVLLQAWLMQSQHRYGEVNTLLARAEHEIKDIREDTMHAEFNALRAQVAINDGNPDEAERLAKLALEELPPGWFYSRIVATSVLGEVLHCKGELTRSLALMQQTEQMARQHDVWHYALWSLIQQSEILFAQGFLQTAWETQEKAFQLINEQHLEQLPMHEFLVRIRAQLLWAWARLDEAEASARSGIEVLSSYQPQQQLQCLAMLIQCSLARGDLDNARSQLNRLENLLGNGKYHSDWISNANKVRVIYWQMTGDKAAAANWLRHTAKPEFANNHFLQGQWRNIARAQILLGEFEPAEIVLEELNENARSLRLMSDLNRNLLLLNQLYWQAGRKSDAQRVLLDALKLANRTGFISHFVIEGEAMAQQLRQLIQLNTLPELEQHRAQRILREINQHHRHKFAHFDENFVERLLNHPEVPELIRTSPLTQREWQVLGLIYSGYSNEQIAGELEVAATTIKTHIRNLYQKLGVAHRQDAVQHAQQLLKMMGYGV
The experiment is described as follows: limited proteinase K proteolysis protection (arm-sensor hinge), SDS-PAGE quantification, binding isotherm. Conditions: 50 mM HEPES pH 8.0, 10.1 mM Mg acetate, 0.44 mM ATP, 25°C; no reducing agent; full saturation assumed at 50 mM; read-out: KD (apparent dissociation constant).

Experiment [2] has as its target T2, HMalT (His-tagged MalT) (Escherichia coli, UniProt P06993, Q70C/E395C).
T2 construct: full-length, His-tagged; purified on Ni2+ resin then Superdex 200; monomeric in resting form, multimerizes with maltotriose and ATP
The description is as above. The note with it: 50 mM HEPES pH 8.0, 10.1 mM Mg acetate, 0.44 mM ATP, 25°C; no reducing agent: oxidized form, C70-C395 disulfide locks NOD closed; full saturation assumed at 50 mM; read-out: KD (apparent dissociation constant).

The target in experiment [3] is T3, HMalT^336-806 (arm-sensor polypeptide) (Escherichia coli, UniProt P06993).
T3 construct: gene malT; arm-sensor fragment, residues 336-806, His-tagged; purified on Ni2+ resin then Superdex 200
T3 sequence (P06993 336-806): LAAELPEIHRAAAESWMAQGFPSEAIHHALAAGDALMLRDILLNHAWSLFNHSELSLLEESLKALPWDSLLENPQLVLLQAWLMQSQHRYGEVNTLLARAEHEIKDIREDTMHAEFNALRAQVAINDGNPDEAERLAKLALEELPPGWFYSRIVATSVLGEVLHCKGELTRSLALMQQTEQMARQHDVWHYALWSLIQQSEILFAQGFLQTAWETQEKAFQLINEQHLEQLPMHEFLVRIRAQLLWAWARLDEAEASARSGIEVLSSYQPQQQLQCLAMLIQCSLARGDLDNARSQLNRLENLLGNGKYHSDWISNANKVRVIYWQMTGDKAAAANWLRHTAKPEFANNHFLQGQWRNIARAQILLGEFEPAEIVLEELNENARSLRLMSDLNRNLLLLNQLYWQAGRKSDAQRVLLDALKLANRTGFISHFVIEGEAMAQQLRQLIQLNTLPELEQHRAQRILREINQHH
As to the kind of experiment: intrinsic tryptophan fluorescence titration, quadratic fit. Type of experiment: binding. The note with it: 20 mM Tris-HCl pH 8.0, 0.2 M KCl, 20°C; 1 μM protein; excitation 295 nm, emission 323 nm.

For experiment [4], the target named is T2, HMalT (His-tagged MalT). As to the kind of experiment: filter-binding assay, dissociation of [α-32P]ADP complex chased by cold ADP. The note with it: labelled compound; oxidized form (C70-C395 disulfide), no DTT, with or without 20 mM maltotriose; buffer B pH 8.0, 10 mM Mg acetate, 25°C; 1 mM cold ADP chase.
The target in experiment [5] is T1, HMalT (His-tagged MalT). The description is as above. The note with it: labelled compound; resting form, no maltotriose; buffer B pH 8.0, 10 mM Mg acetate, 25°C; 1 mM cold ADP chase.

T2 sequence (P06993 whole entry Q70C/E395C): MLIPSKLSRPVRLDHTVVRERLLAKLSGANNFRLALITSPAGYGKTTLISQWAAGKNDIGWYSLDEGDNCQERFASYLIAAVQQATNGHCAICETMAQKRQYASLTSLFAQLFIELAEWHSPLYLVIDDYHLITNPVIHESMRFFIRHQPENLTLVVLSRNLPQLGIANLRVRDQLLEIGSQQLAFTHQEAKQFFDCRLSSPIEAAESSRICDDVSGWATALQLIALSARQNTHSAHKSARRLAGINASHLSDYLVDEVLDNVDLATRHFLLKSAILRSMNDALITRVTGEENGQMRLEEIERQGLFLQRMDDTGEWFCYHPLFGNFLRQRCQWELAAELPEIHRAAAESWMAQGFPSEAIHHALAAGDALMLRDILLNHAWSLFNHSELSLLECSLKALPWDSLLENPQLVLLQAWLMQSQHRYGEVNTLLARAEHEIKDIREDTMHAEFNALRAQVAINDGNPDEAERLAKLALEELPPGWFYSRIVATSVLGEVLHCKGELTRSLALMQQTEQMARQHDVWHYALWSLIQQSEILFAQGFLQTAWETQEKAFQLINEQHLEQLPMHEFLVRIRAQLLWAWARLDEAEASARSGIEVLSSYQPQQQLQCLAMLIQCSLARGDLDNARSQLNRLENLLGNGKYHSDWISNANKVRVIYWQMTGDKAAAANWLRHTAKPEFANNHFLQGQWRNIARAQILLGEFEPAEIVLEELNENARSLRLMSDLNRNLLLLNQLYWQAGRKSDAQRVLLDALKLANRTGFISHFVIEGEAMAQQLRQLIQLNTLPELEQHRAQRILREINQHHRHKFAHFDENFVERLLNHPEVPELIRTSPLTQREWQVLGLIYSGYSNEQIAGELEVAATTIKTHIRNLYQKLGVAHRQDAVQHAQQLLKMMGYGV

Turning to `OC[C@H]1O[C@H](O[C@H]2[C@H](O)[C@@H](O)[C@@H](O[C@H]3[C@H](O)[C@@H](O)C(O)O[C@@H]3CO)O[C@@H]2CO)[C@H](O)[C@@H](O)[C@@H]1O` (some centres unmarked) [maltotriose], the figures for the Kd (at HMalT (His-tagged MalT) [1]; at HMalT (His-tagged MalT) [2]; in experiment [3]) were 131 ± 12 µM, 2600 ± 500 µM and 2.7 ± 1.2 µM, respectively.
Turning to `Nc1ncnc2c1ncn2[C@@H]1O[C@H](COP(=O)(O)OP(=O)(O)O)[C@@H](O)[C@H]1O` [ADP], the t1/2 is > 8.33 h at HMalT (His-tagged MalT) [4] and 1.98 ± 0.183 h on HMalT (His-tagged MalT) [5].

For the origin of these results see PMC4381067, “How ‘arm-twisting’ by the inducer triggers activation of the MalT transcription factor, a typical signal transduction ATPase with numerous domains (STAND)” (Nucleic Acids Research, 2015).
